Test results from patent publication EP4785945A1, “THERAPEUTIC AGENT FOR RHEUMATOID ARTHRITIS” (Teijin Pharma Limited, priority 2023, dated 2025).

Columns and labels:
[1] = package insert; cited from earlier work
[2] = system: synovial cells; experiment: Proliferation of synovial cells stimulated with TNF-α and IL-1β; format: cell-based; conditions: Synovial cell, relative to baseline after TNF-α and IL-1β stimulation without Compound 1, read-out: suppression of proliferation of synovial cells
Experimental: (§1) The synovial cells used in the test were derived from rheumatoid arthritis patients. The synovial cells were stimulated with tumor necrosis factor-α (TNF-α) and interleukin-1β (IL-1β) at the time of the test, and the effect of Compound 1 was measured. […] Furthermore, with regard to matrix metalloproteinase-3 (MMP-3), which is a mediator involved in tissue destruction, relative to a baseline after TNF-α and IL-1β stimulation without any added Compound 1, Compound 1 suppressed secretion in a dosage-dependent manner, by 14% when 10 nM was added, 21% when 30 nM was added, 37% when 100 nM was added, 60% when 300 nM was added, and 63% when 1000 nM was added.

[3] = system: synovial cells and bone marrow cells; format: in vitro ADME
Experimental: Cultured synovial cells and bone marrow cells were used. Compound 1 was added, and the intracellular concentration in the synovial cells and bone marrow cells and the concentration in the culture medium were measured.

[4] = system: rheumatoid arthritis patients; experiment: Clinical trial on rheumatoid arthritis patients: safety; format: in vivo, humans
Experimental: (§2) Compound 1 was orally administered at dosages of 10, 25, 75, or 175 mg once daily for seven days (double-blind study) to 32 rheumatoid arthritis patients (six patients for each dosage of Compound 1 administration, and two patients for each dosage of placebo administration).
(§3) Endpoints included: items related to disease activity and pain (DAS28-CRP, ACR20, VAS scale pain score, and TJC) to represent efficacy; vital signs (blood pressure, pulse, body temperature, and respiratory rate), physical findings, electrocardiograms, hematological tests, blood biochemistry tests, and the severity and frequency of adverse events to represent safety; and changes in the plasma concentration of Compound 1 to represent pharmacokinetics (PK).

[5] = system: rheumatoid arthritis patients; experiment: Clinical trial on rheumatoid arthritis patients: efficacy (ACR20, DAS28-CRP, VAS scale pain score, TJC); format: in vivo, humans
Experimental: as §2, §3
DAS28-CRP was used to determine whether there was improvement or no improvement based on the differences between the values on Day 1 and Day 7 of administration, in accordance with the criteria shown in Table 1 (EULAR criteria).
ACR20 was used to determine whether there was an improvement based on the ACR20 on Day 1 and Day 7 of administration.
The percentage change in the VAS scale pain score is the percentage change in the score on Day 7 compared to the score on Day 1.
The percentage change in the TJC score is the percentage change in the value on Day 7 compared to the value on Day 1.

[6] = system: mouse anti-collagen antibody-induced arthritis (CAIA) model; experiment: Combination study with etanercept, Arthritis Score; format: in vivo; conditions: Compound 1 alone, 50 mg/kg/day
Experimental: The effect of combining Compound 1 with etanercept was measured using a mouse anti-collagen antibody-induced arthritis (CAIA) model. The effect was evaluated using the Arthritis Score. […] Compared to the control, the scores decreased by 64% when only Compound 1 was used, by 62% when only etanercept was used, and by 97% when Compound 1 and etanercept were used in combination.

[7] = system: rat adjuvant-induced arthritis (AIA) model; experiment: Combination study with methotrexate, Arthritis Score; format: in vivo
Experimental: The effect of combining Compound 1 with methotrexate was measured using a rat adjuvant-induced arthritis (AIA) model. The effect was evaluated using the Arthritis Score. […] Compared to the control, the scores decreased by 33% when only Compound 1 was used, by 59% when only methotrexate was used, and by 86% when Compound 1 and methotrexate were used in combination. On the other hand, in this study, there was no decrease in the number of bone marrow cells even when Compound 1 and methotrexate were used in combination.

[8] = system: rat AIA model; experiment: Combination study with tofacitinib, Arthritis Score; format: in vivo; conditions: 30 mg/kg/day
Experimental: The effect of combining compound 1 with tofacitinib was measured using a rat AIA model. The effect was evaluated using the Arthritis Score.

[9] = system: matrix metalloproteinase-3 (MMP-3); experiment: MMP-3 secretion by synovial cells stimulated with TNF-α and IL-1β; format: cell-based; conditions: Synovial cell, relative to baseline after TNF-α and IL-1β stimulation without Compound 1, read-out: suppression of MMP-3 secretion
Experimental: as §1

[10] = Clinical trial on rheumatoid arthritis patients: pharmacokinetics (plasma concentration); format: in vivo, humans; conditions: human, Day 7 after administration
Experimental: as §2, §3

[11] = system: granulocyte macrophage colony-stimulating factor (GM-CSF); experiment: GM-CSF secretion by synovial cells stimulated with TNF-α and IL-1β; format: cell-based; conditions: relative to baseline after TNF-α and IL-1β stimulation without Compound 1, read-out: suppression of GM-CSF secretion
Experimental: as §1

[12] = Day 1 to Day 7 of administration and three-day follow-up (up to Day 10)
[13] = all administration groups (10 to 175 mg)
[14] = 25 mg, 75 mg, and 175 mg administration groups, Day 7 compared to Day 1
[15] = 75 mg administration group, Day 7 compared to Day 1

In the case of CCN1CCN(Cc2ccc(Nc3ncc(F)c(-c4cc(F)c5nc(C)n(C(C)C)c5c4)n3)nc2)CC1 [abemaciclib], the “incidence of the side effect of neutropenia” value [1] is given as 42.2%.

For CC(C)Nc1nc([C@@H](C)O)cc2cnc(Nc3ccc(N4CCNCC4=O)cn3)nc12 [Compound 1, (R)-1-(6-((6-(1-hydroxyethyl)-8-(isopropylamino)pyrido[3,4-d]pyrimidin-2-yl)amino)pyridin-3-yl)piperazin-2-one], the inhibition at 0.01 µM ([2]; 10 nM) was 5%, the inhibition at 0.03 µM ([2]; 30 nM) was 14% and the inhibition at 0.1 µM ([2]; 100 nM) was 19%. For the same molecule, the inhibition at 0.3 µM ([2]; 300 nM) was 27%, the inhibition at 1 µM ([2]; 1000 nM) was 35% and the “distribution ratio between synovial cells and bone marrow cells” value [3] was 84:16. The “adverse events, cases (events)” value ([4]; 10 mg administration group) was “two cases (five events)”, the “adverse events, cases (events)” value ([4]; 25 mg administration group) was “two cases (three events)” and the “adverse events, cases (events)” value ([4]; 75 mg administration group) was “two cases (three events)”. The “adverse events, cases (events)” value ([4]; 175 mg administration group) was “one case (one event)”, the “neutropenia or decrease in neutrophil count” value [4, 12] was “no neutropenia or decrease in neutrophil count” and the neutrophil count [4, 12] was “maintained a constant neutrophil count”. For the same molecule, the severe adverse events [4, 13] was “no severe adverse events”, the “severity of adverse events” value [4, 13] was “mild to moderate” and the “changes in vital signs, electrocardiograms, physical findings, hematological tests, or blood biochemistry tests” value ([4]; any dosage (10, 25, 75, 175 mg once daily, seven days)) was “No significant changes”. For the same molecule, the “percentages of subjects who showed improvement in ACR20, compared with placebo group” value ([5]; 25 mg, 75 mg, and 175 mg administration groups, once daily oral, seven days) was “higher than in the placebo group”, the “percentages of subjects who showed improvement in DAS28-CRP, compared with placebo group” value ([5]; 25 mg, 75 mg, and 175 mg administration groups, once daily oral, seven days, EULAR criteria) was “higher than in the placebo group” and the “decreases in the TJC scores, compared with placebo group” value [5, 14] was “higher than in the placebo group”. For the same molecule, the “decreases in the VAS scale pain scores, compared with placebo group” value [5, 14] was “higher than in the placebo group”, the “percentage of subjects who showed improvement in ACR20” value ([5]; 75 mg administration group, once daily oral, seven days) was 60% and the “percentage of subjects who showed improvement in DAS28-CRP” value ([5]; 75 mg administration group, once daily oral, seven days, EULAR criteria) was 80%. The “percentage change in the TJC score” value [5, 15] was -40%, the “percentage change in the VAS scale pain score” value [5, 15] was -40% and the “decrease of Arthritis Score compared to the control” value (from here on “decrease of Arthritis Score”) [6] was 64%. The “decrease of Arthritis Score” value ([7]; Compound 1 alone, 30 mg/kg/day) was 33%, the “decrease of Arthritis Score” value ([8]; Compound 1 alone) was 40% and the inhibition at 0.01 µM ([9]; 10 nM) was 14%. The inhibition at 0.03 µM ([9]; 30 nM) was 21%, the inhibition at 0.1 µM ([9]; 100 nM) was 37% and the inhibition at 0.3 µM ([9]; 300 nM) was 60%. The inhibition at 1 µM ([9]; 1000 nM) was 63%, the half-life at 168 h ([10]; 10 mg once daily oral) was 12.9 h and the half-life at 168 h ([10]; 25 mg once daily oral) was 11.9 h. The half-life at 168 h ([10]; 75 mg once daily oral) was 14.6 h, the half-life at 168 h ([10]; 175 mg once daily oral) was 10.4 h and the inhibition at 0.008 µM ([11]; 8 nM) was 17%. For the same molecule, the inhibition at 0.04 µM ([11]; 40 nM) was 25%, the inhibition at 0.2 µM ([11]; 200 nM) was 48% and the inhibition at 1 µM ([11]; 1000 nM) was 65%.

For CN(Cc1cnc2nc(N)nc(N)c2n1)c1ccc(C(=O)N[C@@H](CCC(=O)O)C(=O)O)cc1 [methotrexate, reference compound], the “decrease of Arthritis Score” value ([7]; methotrexate alone, 0.075 mg/kg/day) was 59%.

In the case of C[C@@H]1CCN(C(=O)CC#N)C[C@@H]1N(C)c1ncnc2[nH]ccc12 [tofacitinib, reference compound], the “decrease of Arthritis Score” value ([8]; tofacitinib alone) is reported as 67%.
